From patent US20170101407A1, “6-CHLORINE-SUBSTITUTED IMIDAZO[1,2-A]PYRIDINE CARBOXAMIDES AND THE USE THEREOF AS SOLUBLE GUANYLATE CYCLASE STIMULATORS” (Bayer Pharma Aktiengesellschaft, priority 2014, published 2017)

Test system: recombinant guanylate cyclase reporter cell line
Test: Effect on a recombinant guanylate cyclase reporter cell line
Format: cell-based
Details: in some cases mean values for individual determinations
Experimental: B-2. Effect on a Recombinant Guanvlate Cyclase Reporter Cell Line
The cellular activity of the compounds according to the invention is determined using a recombinant guanylate cyclase reporter cell line, as described in F. Wunder et al., Anal. Biochem. 339, 104-112 (2005).
Representative MEC values (MEC=minimum effective concentration) for the compounds of the invention are shown in the table below (in some cases as mean values for individual determinations): […]

| SMILES | MEC (minimum effective concentration) [µM] |
| --- | --- |
| Cc1nc2c(OCc3c(F)cccc3F)cc(Cl)cn2c1C(=O)NCC(C)(N)CCF (racemic) [Example 7, rac-N-(2-Amino-4-fluoro-2-methylbutyl)-6-chloro-8-[(2,6-difluorobenzyl)oxy]-2-methylimidazo[1,2-a]pyridine-3-carboxamide (racemate)] | 0.1 |
| Cc1nc2c(OCc3c(F)cccc3F)cc(Cl)cn2c1C(=O)NCC(C)(N)CCCF (single isomer, unassigned; enantiomer a) [Example 3, ent-N-(2-Amino-5-fluoro-2-methylpentyl)-6-chloro-8-[(2,6-difluorobenzyl)oxy]-2-methylimidazo[1,2-a]pyridine-3-carboxamide (enantiomer A)] | 0.1 |
| Cc1nc2c(OCc3c(F)cccc3F)cc(Cl)cn2c1C(=O)NCC(C)(N)CC(F)F (single isomer, unassigned; enantiomer a) [Example 5, ent-N-(2-Amino-4,4-difluoro-2-methylbutyl)-6-chloro-8-[(2,6-difluorobenzyl)oxy]-2-methylimidazo[1,2-a]pyridine-3-carboxamide (enantiomer A)] | 0.3 |
| Cc1nc2c(OCc3c(F)cccc3F)cc(Cl)cn2c1C(=O)NCC(C)(N)CCF (single isomer, unassigned; enantiomer a) [Example 8, ent-N-(2-Amino-4-fluoro-2-methylbutyl)-6-chloro-8-[(2,6-difluorobenzyl)oxy]-2-methylimidazo[1,2-a]pyridine-3-carboxamide (enantiomer A)] | 0.1 |
| Cc1nc2c(OCc3c(F)cccc3F)cc(Cl)cn2c1C(=O)NCC(C)(N)CF (single isomer, unassigned; enantiomer b) [Example 1, ent-N-(2-Amino-3-fluoro-2-methylpropyl)-6-chloro-8-[(2,6-difluorobenzyl)oxy]-2-methylimidazo[1,2-a]pyridine-3-carboxamide (enantiomer B)] | 0.3 |
| Cc1nc2c(OCc3c(F)cccc3F)cc(Cl)cn2c1C(=O)NCC(C)(N)CCC(F)(F)F (single isomer, unassigned; enantiomer b) [Example 2, ent-N-(2-Amino-5,5,5-trifluoro-2-methylpentyl)-6-chloro-8-[(2,6-difluorobenzyl)oxy]-2-methylimidazo[1,2-a]pyridine-3-carboxamide (enantiomer B)] | 0.3 |
| Cc1nc2c(OCc3c(F)cccc3F)cc(Cl)cn2c1C(=O)NCC(C)(N)CCCF (single isomer, unassigned; enantiomer b) [Example 4, ent-N-(2-Amino-5-fluoro-2-methylpentyl)-6-chloro-8-[(2,6-difluorobenzyl)oxy]-2-methylimidazo[1,2-a]pyridine-3-carboxamide (enantiomer B)] | 0.1 |
| Cc1nc2c(OCc3c(F)cccc3F)cc(Cl)cn2c1C(=O)NCC(C)(N)CC(F)F (single isomer, unassigned; enantiomer b) [Example 6, ent-N-(2-Amino-4,4-difluoro-2-methylbutyl)-6-chloro-8-[(2,6-difluorobenzyl)oxy]-2-methylimidazo[1,2-a]pyridine-3-carboxamide (enantiomer B)] | 0.3 |
| Cc1nc2c(OCc3c(F)cccc3F)cc(Cl)cn2c1C(=O)NCC(C)(N)CCF (single isomer, unassigned; enantiomer b) [Example 9, ent-N-(2-Amino-4-fluoro-2-methylbutyl)-6-chloro-8-[(2,6-difluorobenzyl)oxy]-2-methylimidazo[1,2-a]pyridine-3-carboxamide (enantiomer B)] | 0.1 |
